In test [1] the test system is SMN2 minigene mRNA (SMN2-A minigene) in HEK293H cells. The test is described as follows: SMN2 minigene mRNA splicing RT-qPCR assay in cultured cells. The class given is cell-based, human. The note with it: Homo sapiens, HEK293-H; concentration increasing full length SMN2 mRNA 1.5-fold relative to vehicle-treated cells; HEK293H cells with SMN2-A minigene, 24 hours, 7-point concentration data; read-out: EC1.5x for production of full length SMN2 mRNA. The gist of the method: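 HEK293H cells stably carrying the SMN2-A minigene were treated for 24 h at 37 °C with a 7-point, 3.16-fold dilution series of compound. Multiplex RT-qPCR measured exon 7-containing minigene FL mRNA against GAPDH, expressed relative to vehicle by modified ΔΔCt; the EC1.5× is the concentration giving a 1.5-fold increase.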
A general note: In qPCR the cycle at which signal appears reflects the starting amount.

Test [2] relates to Smn protein in SMA patient fibroblast cells (GM03813). As to the kind of experiment: Smn protein assay in cultured cells (SMN HTRF). The class given is cell-based, human. To be noted: SMA patient fibroblast cells, 48 hours; for EC1.5x for Smn protein expression: 7-point concentration curve, SMN HTRF, concentration producing 1.5 times Smn protein vs DMSO vehicle control; for maximum fold (Fold) increase of Smn protein: 7-point concentration data, fold relative to vehicle control. An outline of the steps:
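SMA patient fibroblasts (5,000 cells/well, DMEM-10% FBS) were treated for 48 h at 37 °C with a 7-point, 3.16-fold dilution series in triplicate. RIPA lysates were probed by HTRF (anti-SMN d2/kryptate, overnight, room temperature), reading 665/620 nm. EC1.5× is the concentration giving 1.5-fold Smn over DMSO vehicle.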
On the technique in general: TR-FRET usually uses a lanthanide donor and a delayed reading to cut background.

Each structure is given as a SMILES string.

Regarding `Cc1cn2nc(-c3cc(=O)n4cc(C5=CCN(C)CC5)cc(C)c4n3)cc2c(C)n1` [Compound 481, 2-(4,6-dimethylpyrazolo[1,5-a]pyrazin-2-yl)-9-methyl-7-(1-methyl-1,2,3,6-tetrahydropyridin-4-yl)-4H-pyrido[1,2-a]pyrimidin-4-one], in test [1], the EC (1.5-fold increase) is below 0.1 µM. Besides, in test [2], the “EC1.5x for Smn protein expression” value is “**** (an EC1.5x≤0.3 μM is indicated by four stars (****))”; the “maximum fold (Fold) increase of Smn protein” value (shortened to “maximum fold (Fold) increase”) is “**** (a fold increase between >1.5 and ≤1.65 is indicated by four stars (****))”.

Regarding `CCN1CC=C(c2cc(C)c3nc(-c4cc5c(C)nc(C)cn5n4)cc(=O)n3c2)CC1` [Compound 482, 2-(4,6-dimethylpyrazolo[1,5-a]pyrazin-2-yl)-7-(1-ethyl-1,2,3,6-tetrahydropyridin-4-yl)-9-methyl-4H-pyrido[1,2-a]pyrimidin-4-one], the EC (1.5-fold increase) in test [1] was below 0.1 µM. In test [2], the “EC1.5x for Smn protein expression” value is “* (An EC1.5× for Smn protein expression between >3 μM and ≤10 μM is indicated by one star (*))”; the “maximum fold (Fold) increase” value is “*** (a fold increase between >1.35 and ≤1.5 is indicated by three stars (***))”.

Consider `Cc1cn2nc(-c3cc(=O)n4cc(C5=CCN(C6CC6)CC5)cc(C)c4n3)cc2c(C)n1` [Compound 483, 7-(1-cyclopropyl-1,2,3,6-tetrahydropyridin-4-yl)-2-(4,6-dimethylpyrazolo[1,5-a]pyrazin-2-yl)-9-methyl-4H-pyrido[1,2-a]pyrimidin-4-one], for which the EC (1.5-fold increase) in test [1] was below 0.1 µM. Moreover, the “maximum fold (Fold) increase” value in test [2] is “** (a fold increase between >1.2 and ≤1.35 is indicated by two stars (**))”.

Consider `CCN1CC=C(c2ccc3nc(-c4cc5cnc(C)cn5n4)cc(=O)n3c2)CC1` [Compound 485, 7-(1-ethyl-1,2,3,6-tetrahydropyridin-4-yl)-2-(6-methylpyrazolo[1,5-a]pyrazin-2-yl)-4H-pyrido[1,2-a]pyrimidin-4-one], for which the EC (1.5-fold increase) in test [1] is below 0.1 µM. In test [2], the “EC1.5x for Smn protein expression” value is given as “**** (an EC1.5x≤0.3 μM is indicated by four stars (****))” and the “maximum fold (Fold) increase” value is listed as “***** (a fold increase >1.65 is indicated by five stars (*****))”.

With `CN1CCCN(c2ccc3nc(-c4ccc5c(cnn5C)c4)cc(=O)n3c2)CC1` [Compound 492, 7-(4-methyl-1,4-diazepan-1-yl)-2-(1-methyl-1H-indazol-5-yl)-4H-pyrido[1,2-a]pyrimidin-4-one], the EC (1.5-fold increase) in test [1] is 0.3 to 1 µM. Also, in test [2], the “EC1.5x for Smn protein expression” value is “** (an EC1.5× between >1 μM and ≤3 μM is indicated by two stars (**))”; the “maximum fold (Fold) increase” value is “**** (a fold increase between >1.5 and ≤1.65 is indicated by four stars (****))”.

Take `Cc1cn2nc(-c3cc(=O)n4cc(C5CCNCC5)ncc4n3)cc2c(C)n1` [Compound 502, 2-(4,6-dimethylpyrazolo[1,5-a]pyrazin-2-yl)-7-(piperidin-4-yl)-4H-pyrazino[1,2-a]pyrimidin-4-one]: in test [1], the EC (1.5-fold increase) is below 0.1 µM. Also, in test [2], the “EC1.5x for Smn protein expression” value is recorded as “**** (an EC1.5x≤0.3 μM is indicated by four stars (****))” and the “maximum fold (Fold) increase” value was “***** (a fold increase >1.65 is indicated by five stars (*****))”.

Turning to `CCN1CCC(c2cn3c(=O)cc(-c4cc5c(C)nc(C)cn5n4)nc3cn2)CC1` [Compound 504, 2-(4,6-dimethylpyrazolo[1,5-a]pyrazin-2-yl)-7-(1-ethylpiperidin-4-yl)-4H-pyrazino[1,2-a]pyrimidin-4-one], in test [1], the EC (1.5-fold increase) is below 0.1 µM. In addition, in test [2], the “EC1.5x for Smn protein expression” value is reported as “**** (an EC1.5x≤0.3 μM is indicated by four stars (****))” and the “maximum fold (Fold) increase” value is given as “***** (a fold increase >1.65 is indicated by five stars (*****))”.

For the molecule `CCN1CC=C(c2cn3c(=O)cc(-c4ccc5c(cnn5C)c4)nc3cn2)CC1` [Compound 507, 7-(1-ethyl-1,2,3,6-tetrahydropyridin-4-yl)-2-(1-methyl-1H-indazol-5-yl)-4H-pyrazino[1,2-a]pyrimidin-4-one], the EC (1.5-fold increase) in test [1] was 0.1 to 0.3 µM. Also, in test [2], the “EC1.5x for Smn protein expression” value was “*** (an EC1.5× between >0.3 μM and ≤1 μM is indicated by three stars (***))”; the “maximum fold (Fold) increase” value was “**** (a fold increase between >1.5 and ≤1.65 is indicated by four stars (****))”.

Consider `CCN1CCN(c2cc(C)c3nc(-c4cc5c(C)nc(C)cn5n4)cc(=O)n3c2)CC1` [Compound 508, 2-(4,6-dimethylpyrazolo[1,5-a]pyrazin-2-yl)-7-(4-ethylpiperazin-1-yl)-9-methyl-4H-pyrido[1,2-a]pyrimidin-4-one], for which the EC (1.5-fold increase) in test [1] is below 0.1 µM. Further, in test [2], the “EC1.5x for Smn protein expression” value is “*** (an EC1.5× between >0.3 μM and ≤1 μM is indicated by three stars (***))”; the “maximum fold (Fold) increase” value is “**** (a fold increase between >1.5 and ≤1.65 is indicated by four stars (****))”.

Turning to `Cc1cn2nc(-c3cc(=O)n4nc(C5CCNCC5)ccc4n3)cc2c(C)n1` [Compound 512, 2-(4,6-dimethylpyrazolo[1,5-a]pyrazin-2-yl)-7-(piperidin-4-yl)-4H-pyrimido[1,2-b]pyridazin-4-one], in test [1], the EC (1.5-fold increase) is below 0.1 µM. Besides, in test [2], the “EC1.5x for Smn protein expression” value was “**** (an EC1.5x≤0.3 μM is indicated by four stars (****))” and the “maximum fold (Fold) increase” value is reported as “***** (a fold increase >1.65 is indicated by five stars (*****))”.

As to `Cc1cn2nc(-c3cc(=O)n4cc(N5CCCN(C)CC5)cc(C)c4n3)cc2c(C)n1` [Compound 520, 2-(4,6-dimethylpyrazolo[1,5-a]pyrazin-2-yl)-9-methyl-7-(4-methyl-1,4-diazepan-1-yl)-4H-pyrido[1,2-a]pyrimidin-4-one], the EC (1.5-fold increase) in test [1] was in the range of 0.1 to 0.3 µM. Further, in test [2], the “EC1.5x for Smn protein expression” value is “**** (an EC1.5x≤0.3 μM is indicated by four stars (****))”; the “maximum fold (Fold) increase” value is “**** (a fold increase between >1.5 and ≤1.65 is indicated by four stars (****))”.

Take `Cn1cc2cc(-c3cc(=O)n4nc(C5CCNCC5)ccc4n3)ccc2n1` [Compound 521, 2-(2-methyl-2H-indazol-5-yl)-7-(piperidin-4-yl)-4H-pyrimido[1,2-b]pyridazin-4-one]: the EC (1.5-fold increase) in test [1] fell in the range of 0.1 to 0.3 µM. Besides, in test [2], the “EC1.5x for Smn protein expression” value is listed as “**** (an EC1.5x≤0.3 μM is indicated by four stars (****))” and the “maximum fold (Fold) increase” value is given as “***** (a fold increase >1.65 is indicated by five stars (*****))”.

As for `Cc1cn2nc(-c3cc(=O)n4cc(N5CCNC(C)(C)C5)cc(C)c4n3)cc2c(C)n1` [Compound 544, 7-(3,3-dimethylpiperazin-1-yl)-2-(4,6-dimethylpyrazolo[1,5-a]pyrazin-2-yl)-9-methyl-4H-pyrido[1,2-a]pyrimidin-4-one], the EC (1.5-fold increase) in test [1] is below 0.1 µM. Also, in test [2], the “EC1.5x for Smn protein expression” value was “*** (an EC1.5× between >0.3 μM and ≤1 μM is indicated by three stars (***))”; the “maximum fold (Fold) increase” value is “**** (a fold increase between >1.5 and ≤1.65 is indicated by four stars (****))”.

In the case of `Cc1cn2cc(-c3cc(=O)n4cc(C5CCNCC5)ncc4n3)ccc2n1` [Compound 585, 2-(2-methylimidazo[1,2-a]pyridin-6-yl)-7-(piperidin-4-yl)-4H-pyrazino[1,2-a]pyrimidin-4-one], the EC (1.5-fold increase) in test [1] is below 0.1 µM. Also, in test [2], the “EC1.5x for Smn protein expression” value is “**** (an EC1.5x≤0.3 μM is indicated by four stars (****))” and the “maximum fold (Fold) increase” value is “***** (a fold increase >1.65 is indicated by five stars (*****))”.

In the case of `Cc1cn2cc(-c3cc(=O)n4cc(C5CCNCC5)ncc4n3)cc(Cl)c2n1` [Compound 587, 2-(8-chloro-2-methylimidazo[1,2-a]pyridin-6-yl)-7-(piperidin-4-yl)-4H-pyrazino[1,2-a]pyrimidin-4-one], in test [1], the EC (1.5-fold increase) was below 0.1 µM. Also, in test [2], the “EC1.5x for Smn protein expression” value is on record as “**** (an EC1.5x≤0.3 μM is indicated by four stars (****))”; the “maximum fold (Fold) increase” value was “**** (a fold increase between >1.5 and ≤1.65 is indicated by four stars (****))”.

In the case of `Cc1cn2cc(-c3cc(=O)n4cc(C5CCNCC5)ncc4n3)cc(C)c2n1` [Compound 588, 2-(2,8-dimethylimidazo[1,2-a]pyridin-6-yl)-7-(piperidin-4-yl)-4H-pyrazino[1,2-a]pyrimidin-4-one], in test [1], the EC (1.5-fold increase) was below 0.1 µM. Besides, in test [2], the “EC1.5x for Smn protein expression” value was “**** (an EC1.5x≤0.3 μM is indicated by four stars (****))” and the “maximum fold (Fold) increase” value is “***** (a fold increase >1.65 is indicated by five stars (*****))”.

Take `CN1CCN(c2cn3c(=O)cc(-c4ccc5nn(C)cc5c4)nc3cn2)CC1` [Compound 589, 2-(2-methyl-2H-indazol-5-yl)-7-(4-methylpiperazin-1-yl)-4H-pyrazino[1,2-a]pyrimidin-4-one]: the EC (1.5-fold increase) in test [1] is 0.1 to 0.3 µM. In addition, in test [2], the “EC1.5x for Smn protein expression” value was “*** (an EC1.5× between >0.3 μM and ≤1 μM is indicated by three stars (***))”; the “maximum fold (Fold) increase” value is “**** (a fold increase between >1.5 and ≤1.65 is indicated by four stars (****))”.

`CC(C)N1CCC(c2ccc3nc(-c4ccc5nn(C)cc5c4)cc(=O)n3c2)CC1` [Compound 608, 2-(2-methyl-2H-indazol-5-yl)-7-[1-(propan-2-yl)piperidin-4-yl]-4H-pyrido[1,2-a]pyrimidin-4-one]: in test [1], the EC (1.5-fold increase) is 0.1 to 0.3 µM. Moreover, in test [2], the “EC1.5x for Smn protein expression” value is “** (an EC1.5× between >1 μM and ≤3 μM is indicated by two stars (**))”; the “maximum fold (Fold) increase” value was “**** (a fold increase between >1.5 and ≤1.65 is indicated by four stars (****))”.

These data come from patent publication US11753407B2, “Compounds for treating spinal muscular atrophy” (PTC Therapeutics, Inc., priority 2012, dated 2023).
